Data reported in US8829003B2, “Compounds for treating proliferative disorders” (Changzhou Le Sun Pharmaceuticals Limited, priority 2010, dated 2014).

Experiments:
cancer cells = assay: MTT proliferation assay; format: cell-based; details: GI50 values only in FIG. 4
Excerpt: C.1. MTT Proliferation Assay.
The compounds from the examples above were subjected to a standard cellular proliferation assay using the method described previously in S. Wang et al. J Med Chem. 2004, 47, 1662-1675. The data analysis used program Deltasoft 3™ and Microsoft Excel to determine GI50 values (concentration of test compound which inhibits cell growth by 50%).

[1] = Mouse pharmacokinetics, IV and oral dosing; details: mice
Experimental: For PK measurements male adult CD1 mice weighing 25-30 g (Charles River) are split into weight matched groups of 3 per group. IV dosed mice were restrained in individual restraining tubes, the tail was warmed in warm water to vasodilate the tail vein, and the IV bolus was then administered via the tail vein. Orally dosed mice were held at the scruff of the neck and dosed via a metal gavage directly into the stomach. Immediately after dosing mice are returned to their cage, plastic box cage with sawdust bedding, and food and water available. Blood samples were collected from the mouse under anaesthesia by cardiac puncture using a 1 mL syringe and 25 gauge needle at time zero and at intervals up to 8 h. Harvested blood was centrifuged at 7000×G for 2 minutes, and the plasma aspirated and frozen at 20° C. until analysis. Quantitative compound level analysis was carried out using LC-MS/MS methods. Pharmacokinetic data derived using PK Solutions 2.0, non-compartmental analysis. Oral bioavailability (% F) was calculated by taking the ratio of dose-normalised AUC values from oral versus parenteral dosing.

[2] = test system: HCT-116 human colon cancer cells; assay: Cell-cycle effects, DNA content by flow cytometry; format: cell-based; details: HCT-116 cells, 0.62 μM, 48 hrs
Experimental: HCT-116 human colon cancer cells were treated with DMSO and A.12 at GI50 and […] respectively for a period of 48 hrs. The cells were analysed for their DNA content by flow cytometry.
This further indicates the efficacy of the compounds of the invention.

For COc1cc(OC)c(/C=C/S(=O)(=O)Cc2cnc(OC)c(N)c2)c(OC)c1 [A.10, (E)-2-methoxy-5-((2,4,6-trimethoxystyrylsulfonyl)methyl)pyridin-3-amine], the “inhibition of cell growth” value (cancer cells) was “effectively inhibit cell growth”.

For COc1cc(OC)c(/C=C/S(=O)(=O)Cc2cnc(OC)c(NS(C)(=O)=O)c2)c(OC)c1 [A.12, (E)-N-(2-methoxy-5-((2,4,6-trimethoxystyrylsulfonyl)methyl)pyridin-3-yl)methanesulfonamide], the “pharmacokinetic properties compared with ON01910.Na” value ([1]; IV and PO) was “significantly improved pharmacokinetic properties”, the “oral bioavailability (F)” value ([1]; oral, 10 mg/kg) was 56% and the “inhibition of cell growth” value (cancer cells) was “effectively inhibit cell growth”. The “apoptosis (sub-G1 cells)” value [2] was “increased sub-G1 cells” and the “effect on cell cycle progression” value [2] was “block of their cell cycle progression in G2/M phase”.

For CCOC(=O)CNc1cc(CS(=O)(=O)/C=C/c2c(OC)cc(OC)cc2OC)cnc1OC [A.13, (E)-ethyl 2-(2-methoxy-5-((2,4,6-trimethoxystyrylsulfonyl)methyl)pyridin-3-ylamino)acetate], the “inhibition of cell growth” value (cancer cells) was “effectively inhibit cell growth”.

With COc1cccc(OC)c1/C=C/S(=O)(=O)Cc1cnc(OC)c([N+](=O)[O-])c1 [A.17, (E)-5-((2,6-Dimethoxystyrylsulfonyl)methyl)-2-methoxy-3-nitropyridine] the “inhibition of cell growth” value (cancer cells) was “effectively inhibit cell growth”.

In the case of COc1cc(OC)c(/C=C/S(=O)(=O)Cc2ccc(OC)c(N3CCCCC3)n2)c(OC)c1 [A.29, (E)-3-Methoxy-2-(piperidin-9-yl)-6-((2,4,6-trimethoxystyrylsulfonyl)methyl)pyridine], the “inhibition of cell growth” value (cancer cells) is reported as “effectively inhibit cell growth”.
